# Data as given in PMC12040169 (PLOS Biology, 2025).
# Experiment: in vitro
# Settings: human, hela cells, % viability
row,Structure (SMILES),"viability at 28.5 h, 10 µM"
1,O=C1CC2(CCN(C(=O)N3CCCC3)CC2)Oc2ccc(F)cc21 [CBK283597],84.9%
2,Cc1cccc(-c2noc(CNC(=O)CSc3ccccc3)n2)c1 [CBK270209],98.3%
3,O=C(Nc1ccc2c(c1)C1C=CCC1C(C(=O)O)N2)c1ccc(Cl)cc1Cl (centres unmarked) [CBK112584],105%
4,Cc1noc(C)c1C(=O)N1CCCCCC1c1c(Cl)cnn1C (centres unmarked) [CBK284918],93.3%
5,OCCN1CC2(CCN(Cc3cccc4cccnc34)CC2)c2ccccc21 [CBK137014],95.1%
6,CC(C)C(=O)Nc1ccc2[nH]cc(C(C(=O)O)N3CCN(c4ccccc4)CC3)c2c1 (centres unmarked) [CBK286645],85.7%
7,O=C(O)c1cccc(NS(=O)(=O)Cc2ccccc2)c1 [CBK038894],96.4%
8,CC(Sc1nc(C2CC2)n(-c2ccccc2)n1)C(=O)N1CCNC1=O (centres unmarked) [CBK297144],97.2%
9,O=C(O)c1ccc(Cl)c(S(=O)(=O)N2CCCC2C(=O)O)c1 (centres unmarked) [CBK265733],103%
10,COC(=O)c1cccc2c1CCCN2Cc1nnc(C2CC2)o1 [CBK304868],90.2%
11,c1cc2[nH]ccc2c(N2CCNCC2)n1 [CBK051673C],90.7%
12,CC1(C)CC2(CC(C)(C(=O)CSc3nnc(-c4ccccc4Br)[nH]3)OC2=O)C(=O)O1 (centres unmarked) [CBK266713],102%
13,COc1cc(/C=N/n2cnnc2)ccc1OS(=O)(=O)c1ccccc1[N+](=O)[O-] [CBK263814],89.3%
14,O=C(Nc1ccc(Cl)cc1)N1CCCCC1CO (centres unmarked) [CBK156179],99.5%
15,COCCNc1nccnc1-c1ccccc1CO [CBK038010],108%
16,CC(C)(C)OC(=O)NC(C)(C)C(=O)N1C[C@H](C(=O)N2CCC3(CC2)CN(S(C)(=O)=O)c2ccccc23)[C@@H](c2nc3ccccc3s2)C1 [CBK136737],91.5%
17,CC(C)(C)C1CCc2c(sc(NC(=O)CCC(=O)O)c2C(=O)Nc2ccccc2Cl)C1 (centres unmarked) [CBK264146],87.2%
18,CCCc1[nH]nc(O)c1Cc1ccc(Cl)cc1 [CBK075013],90%
19,Cc1ccc2c(c1)cc(C(=O)N1CCC(C(=O)NCCc3ccc(Cl)cc3)C1)n2C (centres unmarked) [CBK285926],103%
20,Cc1c(C(=O)NC2(c3ccc(F)cc3)CCCC2)cnn1C [CBK283978],90.9%
21,Cc1[nH]c2ccccc2c1CCNC(=O)N(Cc1cnn(C)c1)C1CC1 [CBK306661],89%
22,Cc1cc(C)nc(NC2=NC(=O)CC(C(=O)O)N2c2ccc(Cl)cc2Cl)n1 (centres unmarked) [CBK286968],94.5%

row,Structure (SMILES),"viability at 28.5 h, 10 µM"
1,CCN(CC)C(=O)CCn1c(-c2cccnc2)cc2cccnc21 [CBK282160],106%
2,Cc1ccc(CNS(=O)(=O)c2ccc3ccccc3c2)cc1 [CBK266501],102%
3,COCc1cc(CC2(NCc3ccc(NC(C)=O)cc3)COC2)no1 [CBK289701],110%
4,Cn1c(=O)oc2ccc(C(=O)NCCN3CCCCC3CO)cc21 (centres unmarked) [CBK307594],78%
5,COc1ccc(C(=O)/C=C/c2ccc(N3N=C(c4ccccc4)CC3c3ccccc3)cc2)cc1 (centres unmarked) [CBK262274],91.7%
6,Cn1c(-c2ccc(C(=O)O)cc2)cc2oc(-c3ccccc3)nc2c1=O [CBK074957],98%
7,COc1nccnc1OC1CCN(CCc2c[nH]c3ccccc23)CC1 [CBK084261],93.6%
8,CC(C)(c1ccccc1)c1ccc(OCC(=O)Nc2cccc(C(=O)O)c2)cc1 [CBK266014],102%
9,Nc1ncc(-c2ccc(C(F)(F)F)cc2)nc1-c1ccc(C(=O)N2CCOCC2)cc1 [CBK090524],103%
10,O=C(CSc1nnc(-c2cccs2)n1-c1ccccc1)Nc1ccnc2ccccc12 [CBK267487],94.4%
11,CCN(CC(=O)NCc1ccc(F)cc1)S(=O)(=O)c1ccc(Cl)s1 [CBK305837],88.2%
12,Cc1nc(-c2ccc(Cl)cc2)sc1C(=O)N1CCCC(C(=O)O)C1 (centres unmarked) [CBK304407],91.9%
13,N#Cc1ccccc1N1CCN(c2cncc(-c3cccs3)n2)CC1 [CBK065656],104%
14,Cn1cnc([N+](=O)[O-])c1Oc1cccc(C(F)(F)F)c1 [CBK002790],87%
15,O=C(NCCCn1ccnn1)c1cccc(S(=O)(=O)N2CCCCC2)c1 [CBK304660],104%
16,Cc1ccc(CN2CCC(CN(C)C(=O)c3cc4sccc4[nH]3)CC2)o1 [CBK307522],102%
17,O=C(Nc1ccccc1N1CCCNCC1)c1ccnc2ccccc12 [CBK036325T],83.4%
18,CC1(C(=O)O)COC(c2ccc([N+](=O)[O-])cc2)OC1 (centres unmarked) [CBK286737],87.1%
19,O=C(O)c1ccc2c(c1)C(=O)N(c1ccc(-c3ccnc(-c4ccc(N5C(=O)c6ccc(C(=O)O)cc6C5=O)cc4)n3)cc1)C2=O [CBK261192],104%
20,CN1CCC(N2CCN(C(=O)c3ccc(-c4ccc(OC(F)(F)F)cc4)nc3)CC2)CC1 [CBK156206],92.8%
21,Cc1cccc(-c2csc3c(=O)[nH]c(N4CCC(C(=O)NCCN(C)C)CC4)nc23)c1 [CBK215633],95.8%
22,Cc1cc(NS(=O)(=O)c2ccc(-c3ccon3)s2)n(C)n1 [CBK067257],85.4%

row,Structure (SMILES),"viability at 28.5 h, 10 µM"
1,O=C(O)c1ccc(S(=O)(=O)c2ccc(Oc3ccc4c(c3)C(=O)N(c3cccc(C(=O)O)c3)C4=O)cc2)cc1 [CBK263608],96.7%
2,COc1ccc(-n2cc(-c3cccc(C(F)(F)F)c3)nn2)cc1OC [CBK112933],94.9%
3,Cc1noc(C)c1NC(=O)CN1CCOCC1 [CBK200381],103%
4,O=C(O)C1Cc2ccccc2C(=O)N1CCc1ccccc1 (centres unmarked) [CBK286592],87.4%
5,O=C(O)c1cc(-c2ccc(-c3ccc(Cl)c(C(F)(F)F)c3)o2)nc2ccc(F)cc12 [CBK300501],111%
6,CCNC(=S)N1CCN(CCNC=C2C(=O)CC(C)(C)CC2=O)CC1 [CBK263661],90.1%
7,COc1ccc(CNC(=O)c2cc(S(=O)(=O)N(C)C)cs2)cc1 [CBK307579],87.1%
8,COc1ccc(OC)c(NC(=O)c2c(NCc3ccncc3)sc3c2CCC3)c1 [CBK266007],90.1%
9,O=C(c1nc2ccccc2s1)C1CCN(C(=O)CCc2ccc(-c3ccccc3)o2)CC1 [CBK286170],86.8%
10,O=C(CSc1nnc(-c2cccnc2)n1-c1cccc(C(F)(F)F)c1)c1ccc(F)cc1 [CBK267599],87.9%
11,Fc1ccc(-c2cc(CC3(NCc4ccc5c(c4)OCO5)COC3)no2)cc1 [CBK289654],109%
12,COCCNc1nc(-c2ccccc2CO)ccc1C(=O)NCCNC(C)=O [CBK076548],101%
13,Cn1cc(C(=O)N2CCCC(c3cc4ccccc4cn3)C2)cn1 (centres unmarked) [CBK285155],106%
14,Cc1nn(C)cc1-c1cncn1CCCN1CCCCC1 [CBK281493],96%
15,Cc1ccc2nc(N3CCCC(O)C3)c(CN3CCN(C)CC3)cc2c1 (centres unmarked) [CBK307710],100%
16,CCCc1cc(C(=O)N(C)CCOc2ccccc2)[nH]n1 [CBK283162],91.7%
17,Cc1ccc(S(=O)(=O)NCCSc2ccccc2)cc1[N+](=O)[O-] [CBK263991],93.6%
18,CCOc1cccc(CNC(=O)N2CCC(Cc3cnn(C)c3)C2)c1 (centres unmarked) [CBK305280],115%
19,Cc1cc2ncc3c(n2n1)CC1CCC3N1C(=O)CCc1ccco1 (centres unmarked) [CBK284380],78.2%
20,O=C(Nc1cccc(CCc2ccncc2)c1)C1CC(=O)N(Cc2ccncc2)C1 (centres unmarked) [CBK286287],89.6%
21,CCC1(O)C(C)C(c2ccc(Cl)cc2)NC(c2ccc(Cl)cc2)C1C (centres unmarked) [CBK025376C],124%
22,Cn1cccc1C1(O)CCCC2CN(C(=O)c3ccco3)CC21 (centres unmarked) [CBK284509],99.9%

row,Structure (SMILES),"viability at 28.5 h, 10 µM"
1,CCn1cc(C(=O)Nc2nccs2)c(=O)c2ccc(C)nc21 [CBK307628],78.3%
2,O=c1nc(O)c2ccccc2s1 [CBK027968],94.9%
3,O=C(O)c1ccc(NS(=O)(=O)c2ccc(NC(=O)c3ccccc3Cl)cc2)cc1 [CBK265184],93%
4,Cc1ccc(NC(=S)NC(=O)Cc2ccccc2)c(O)c1 [CBK264337],106%
5,Cc1nc2n(c(=O)c1CCSc1ccccc1C(=O)O)CCCC2 [CBK286818],102%
6,N/C(=N\OCC(=O)Nc1cccc([N+](=O)[O-])c1)c1nonc1N [CBK262044],90%
7,COc1ccc(CNC(=O)c2sccc2S(=O)(=O)N2CCCCC2)cc1 [CBK305904],101%
8,Cc1ccc(C(=O)/C=C\Nc2ccc(S(=O)(=O)Nc3cc(C)nc(C)n3)cc2)cc1 [CBK264384],124%
9,CN(C)S(=O)(=O)c1ccc(C(=O)Nc2ccc3ncn(C)c(=O)c3c2)cc1 [CBK268450],103%
10,Cc1cccc(NC(=O)c2cnc3n(c2=O)CCS3)c1 [CBK287375],108%
11,CC(=O)Nc1ccc(OC(=O)CSc2nc(C)cc(-c3ccccc3)n2)cc1 [CBK268754],94.7%
12,N=C1NC(=O)/C(=C/c2c(OS(=O)(=O)c3ccc(Cl)cc3)ccc3ccccc23)S1 [CBK265311],89.6%
13,Cc1nc(O)cc(C2CCCN(C(=O)c3scc4c3CCCC4)C2)n1 (centres unmarked) [CBK306969],88.5%
14,Cn1ccnc1C(O)C1CCN(C(=O)NCCc2cccc(F)c2)CC1 (centres unmarked) [CBK304657],80.5%
15,CC(C)CN1CCC(C(=O)NC(c2ccc(Cl)cc2)c2cnccn2)CC1 (centres unmarked) [CBK148026],96.6%
16,COc1cc2c(c(OC)c1OC)CC(=O)NC21CCN(C(=O)NC(C)(C)C)CC1 [CBK047301],94.2%
17,Cc1ccc(S(=O)(=O)N(CC(=O)Nc2cccnc2)c2ccc(F)cc2)cc1 [CBK263968],85.6%
18,Cc1nnnn1-c1cc(NC(=O)NCCCc2nc[nH]n2)ccc1F [CBK304102],87.7%
19,O=C(NCc1ccc([N+](=O)[O-])cc1)c1cccnc1NCc1ccc2c(c1)OCO2 [CBK153436],98.6%

# Same assay, conditions: human, hela cells, % viability, bulk resorufin, single well
row,Structure (SMILES),"viability at 28.5 h, 10 µM"
1,Cc1cc(/C=C2\C(=O)NC(=S)N(c3ccccc3)C2=O)c(C)n1-c1cc(C(=O)O)cc(C(=O)O)c1 [CBK263975],105%
